Data taken from US20230331737A1, “MTORC1 MODULATORS AND USES THEREOF” (Aeovian Pharmaceuticals, Inc., priority 2020, published 2023).

Tests used:
FKBP12 = FKBP12 (Homo sapiens, UniProt P62942); assay: SPR assay to determine binding affinity to FKBP12 (direct binding); conditions: immobilized biotinylated avi-FKBP12, single-cycle kinetics
Description: SPR Assay to Determine Binding Affinity to FKBP12.
Biotinylated avi-FKBP12 was immobilized on a streptavidin chip (Cytiva Series S SA) using a Biacore 8K or 8k+ (Cytiva). […] Test compounds described in Table 11 were diluted in DMSO to 100× working concentration. Each test compound was 100-fold diluted in 50 mM HEPES pH 7.5, 150 mM NaCl, 2 mM MgCl2, 1 mM DTT, 0.05% Tween-20 and a serial dilution prepared (9 concentrations, 3-fold dilutions, 0.08-500 nM). […] The compound dilutions were then injected at 100 uL/min for 120 seconds contact time in sequence with increasing concentrations. Dissociation was monitored for 3600 seconds. 50 mM HEPES pH 7.5, 150 mM NaCl, 2 mM MgCl2, 1 mM DTT, 0.05% Tween-20, 1% DMSO was used as running buffer. The single-cycle kinetics data were fit to a 1:1 binding model to measure the association rate ka (1/Ms), the dissociation rate kd (1/s) and the affinity Kd (M).

[1] = target: FKBP12 ternary complex with FRB (Homo sapiens, UniProt P42345+P62942); assay: SPR assay to characterize ternary complex formation with FKBP12 (FRB injected over compound-saturated FKBP12); format: binding; conditions: FRB dilutions with 100 nM test compound over immobilized FKBP12
Description: Biotinylated avi-FKBP12 was immobilized on a streptavidin chip (Cytiva Series S SA) using a Biacore 8K or 8k+ (Cytiva). To achieve an immobilization level of 100 RU, 0.3 μg/ml biotinylated avi-FKBP12 were injected for 80 sec at a flow rate of 10 μl/min. Serial dilution of FRB was prepared (12 concentrations, 3-fold dilutions, 0.00011-20 μM) and supplemented with 100 nM of a test compound. A-B-A injection mode was used to ensure saturation immobilized FKBP12 with respective test compound. 100 nM solution of the respective test compound was injected before FRB injection for 120 sec and during dissociation for 420 sec. The FRB dilutions were then injected 120 seconds contact time with increasing concentrations. Rapamycin was used as reference sample. 50 mM HEPES pH 7.5, 150 mM NaCl, 2 mM MgCl2, 1 mM DTT, 0.05% Tween-20, 1% DMSO was used as running buffer at a flow rate of 30 μl/min. The multi-cycle kinetics data were fit to a 1:1 binding model to measure the association rate ka (1/Ms), the dissociation rate kd (1/s) and the affinity Kd (M). In case of fast association and dissociation, steady state affinity analysis following the law of mass action was used to determine the affinity Kd (M).

mTORC1 = target: T1, mTORC1 (Homo sapiens, UniProt P42345+P62942); assay: mTORC1 inhibition in PC-3 cells, AlphaLISA of p70S6K pT389 levels; format: cell-based; conditions: mTORC1 as measured by inhibition of p70S6K pT389 levels, read-out: mTROC1 IC50
T1 construct: endogenous in cells; host or cells: PC-3 cells
Description: mTORC1 inhibition was determined via analysis of phosphorylation levels of Phospho-p70 S6 kinase (p70S6K pT389) and Phospho-S6 Ribosomal Protein (pRPS6 pS240/pS244) with the corresponding AlphaLISA kits (PerkinElmer Alpha SF Ultra™ Multiplex phospho (Thr389)/total p70 S6K Assay Kit (Eu/Tb) and AlphaLISA SF Ultra™ p-Ribosomal Protein S6 (Ser240/244) Assay Kit).
%−activity=100*((Sample−Low control)/(High control−Low control))

Chain of FKBP12 (P62942 whole entry, species assumed): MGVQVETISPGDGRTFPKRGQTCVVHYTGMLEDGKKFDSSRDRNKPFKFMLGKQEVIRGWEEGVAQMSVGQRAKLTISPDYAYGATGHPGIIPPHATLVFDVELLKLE

Row | SMILES | Kd (FKBP12) [nM] | Kd [1] [nM] | IC50 (mTORC1) [nM]
1 | CO[C@@H]1C[C@H](C[C@@H](C)[C@@H]2CC(=O)[C@H](C)/C=C(\C)[C@@H](O)[C@@H](OC)C(=O)[C@H](C)C[C@H](C)/C=C/C=C/C=C(\C)[C@H](OCCc3ccccc3)C[C@@H]3CC[C@@H](C)[C@@](O)(O3)C(=O)C(=O)N3CCCCC3C(=O)O2)CC[C@H]1O (stereo partly drawn) [Compound 121, (1R,9S,12S,15R,16E,18R,19R,21R,23S,24E,26E,28E,30R,32S,35R)-1,18-dihydroxy-12-[(1R)-2-[(I S,3R,4R)-4-hydroxy-3-methoxy-cyclohexyl]-1-methyl-ethyl]-19-methoxy-15,17,21,23,29,35-hexamethyl-30-(2-phenylethoxy)-11,36-dioxa-4-azatricyclo[30.3.1.04,9]hexatriaconta-16,24,26,28-tetraene-2,3,10,14,20-pentone] | > 1 | < 500 | 0.8 to 1.5
2 | CO[C@@H]1C[C@H](C[C@@H](C)[C@@H]2CC(=O)[C@H](C)/C=C(\C)[C@@H](O)[C@@H](OC)C(=O)[C@H](C)C[C@H](C)/C=C/C=C/C=C(\C)[C@H](OCC3COC3)C[C@@H]3CC[C@@H](C)[C@@](O)(O3)C(=O)C(=O)N3CCCC[C@H]3C(=O)O2)CC[C@H]1O [Compound 122, (1R,9S,12S,15R,16E,18R,19R,21R,23S,24E,26E,28E,30R,32S,35R)-1,18-dihydroxy-12-[(2R)-1-[(1S,3R,4R)-4-hydroxy-3-methoxycyclohexyl]propan-2-yl]-19-methoxy-15,17,21,23,29,35-hexamethyl-30-[(oxetan-3-yl)methoxy]-11,36-dioxa-4-azatricyclo[30.3.1.04,9]hexatriaconta-16,24,26,28-tetraene-2,3,10,14,20-pentone] | 0.3 to 1 | > 1100 | 0.8 to 1.5
3 | CO[C@@H]1C[C@H](C[C@@H](C)[C@@H]2CC(=O)[C@H](C)/C=C(\C)[C@@H](O)[C@@H](OC)C(=O)[C@H](C)C[C@H](C)/C=C/C=C/C=C(\C)[C@H](OC3COC3)C[C@@H]3CC[C@@H](C)[C@@](O)(O3)C(=O)C(=O)N3CCCC[C@H]3C(=O)O2)CC[C@H]1O [Compound 124, (1R,9S,12S,15R,16E,18R,19R,21R,23S,24E,26E,28E,30R,32S,35R)-1,18-dihydroxy-12-[(2R)-1-[(1S,3R,4R)-4-hydroxy-3-methoxycyclohexyl]propan-2-yl]-19-methoxy-15,17,21,23,29,35-hexamethyl-30-(oxetan-3-yloxy)-11,36-dioxa-4-azatricyclo[30.3.1.04,9]hexatriaconta-16,24,26,28-tetraene-2,3,10,14,20-pentone] | < 0.3 | > 1100 | > 1.5
4 | CO[C@@H]1C[C@H](C[C@@H](C)[C@@H]2CC(=O)[C@H](C)/C=C(\C)[C@@H](O)[C@@H](OC)C(=O)[C@H](C)C[C@H](C)/C=C/C=C/C=C(\C)[C@H](OCCOCCO)C[C@@H]3CC[C@@H](C)[C@@](O)(O3)C(=O)C(=O)N3CCCC[C@H]3C(=O)O2)CC[C@H]1O [Compound 125, (1R,9S,12S,15R,16E,18R,19R,21R,23S,24E,26E,28E,30R,32S,35R)-1,18-dihydroxy-30-[2-(2-hydroxyethoxy)ethoxy]-12-[(1R)-2-[(1S,3R,4R)-4-hydroxy-3-methoxy-cyclohexyl]-1-methyl-ethyl]-19-methoxy-15,17,21,23,29,35-hexamethyl-11,36-dioxa-4-azatricyclo[30.3.1.04,9]hexatriaconta-16,24,26,28-tetraene-2,3,10,14,20-pentone] | < 0.3 | > 1100 | 0.8 to 1.5
5 | CO[C@@H]1C[C@H](C[C@@H](C)[C@@H]2CC(=O)[C@H](C)/C=C(\C)[C@@H](O)[C@@H](OC)C(=O)[C@H](C)C[C@H](C)/C=C/C=C/C=C(\C)[C@H](OC3CC3)C[C@@H]3CC[C@@H](C)[C@@](O)(O3)C(=O)C(=O)N3CCCC[C@H]3C(=O)O2)CC[C@H]1OCCO [Compound 128, (1R,9S,12S,15R,16E,18R,19R,21R,23S,24E,26E,28E,30R,32S,35R)-30-(cyclopropoxy)-1,18-dihydroxy-12-[(1R)-2-[(1S,3R,4R)-4-(2-hydroxyethoxy)-3-methoxy-cyclohexyl]-1-methyl-ethyl]-19-methoxy-15,17,21,23,29,35-hexamethyl-11,36-dioxa-4-azatricyclo[30.3.1.04,9]hexatriaconta-16,24,26,28-tetraene-2,3,10,14,20-pentone] | > 1 | < 500 | 0.8 to 1.5
6 | COCCO[C@@H]1C[C@@H]2CC[C@@H](C)[C@@](O)(O2)C(=O)C(=O)N2CCCC[C@H]2C(=O)O[C@H]([C@H](C)C[C@@H]2CC[C@@H](O)[C@H](OC)C2)CC(=O)[C@H](C)/C=C(\C)[C@@H](O)[C@@H](OC)C(=O)[C@H](C)C[C@H](C)/C=C/C=C/C=C/1C [Compound 130, (1R,9S,12S,15R,16E,18R,19R,21R,23S,24E,26E,28E,30R,32S,35R)-1,18-dihydroxy-12-[(1R)-2-[(1S,3R,4R)-4-hydroxy-3-methoxy-cyclohexyl]-1-methyl-ethyl]-19-methoxy-30-(2-methoxyethoxy)-15,17,21,23,29,35-hexamethyl-11,36-dioxa-4-azatricyclo[30.3.1.04,9]hexatriaconta-16,24,26,28-tetraene-2,3,10,14,20-pentone] | 0.3 to 1 | 500 to 1100 | 0.8 to 1.5
7 | CO[C@@H]1C[C@H](C[C@@H](C)[C@@H]2CC(=O)[C@H](C)/C=C(\C)[C@@H](O)[C@@H](OC)C(=O)[C@H](C)C[C@H](C)/C=C/C=C/C=C(\C)[C@@H](OCCCCO)C[C@@H]3CC[C@@H](C)[C@@](O)(O3)C(=O)C(=O)N3CCCC[C@H]3C(=O)O2)CC[C@H]1OCCCN1CCOCC1 [Compound 426, (1R,9S,12S,15R,16E,18R,19R,21R,23S,24E,26E,28E,30S,32S,35R)-1,18-dihydroxy-30-(4-hydroxybutoxy)-19-methoxy-12-[(1R)-2-[(1S,3R,4R)-3-methoxy-4-(3-morpholinopropoxy)cyclohexyl]-1-methyl-ethyl]-15,17,21,23,29,35-hexamethyl-11,36-dioxa-4-azatricyclo[30.3.1.0^4,9]hexatriaconta-16,24,26,28-tetraene-2,3,10,14,20-pentone] | < 0.3 | 500 to 1100 | 0.8 to 1.5
8 | COCCO[C@H]1C[C@@H]2CC[C@@H](C)[C@@](O)(O2)C(=O)C(=O)N2CCCC[C@H]2C(=O)O[C@H]([C@H](C)C[C@@H]2CC[C@@H](OCCCO)[C@H](OC)C2)CC(=O)[C@H](C)/C=C(\C)[C@@H](O)[C@@H](OC)C(=O)[C@H](C)C[C@H](C)/C=C/C=C/C=C/1C [Compound 427, (1R,9S,12S,15R,16E,18R,19R,21R,23S,24E,26E,28E,30S,32S,35R)-1,18-dihydroxy-12-[(1R)-2-[(1S,3R,4R)-4-(3-hydroxypropoxy)-3-methoxy-cyclohexyl]-1-methyl-ethyl]-19-methoxy-30-(2-methoxyethoxy)-15,17,21,23,29,35-hexamethyl-11,36-dioxa-4-azatricyclo[30.3.1.04,9]hexatriaconta-16,24,26,28-tetraene-2,3,10,14,20-pentone] | 0.3 to 1 | < 500 | < 0.8
9 | COCCO[C@H]1C[C@@H]2CC[C@@H](C)[C@@](O)(O2)C(=O)C(=O)N2CCCC[C@H]2C(=O)O[C@H]([C@H](C)C[C@@H]2CC[C@@H](OCCO)[C@H](OC)C2)CC(=O)[C@H](C)/C=C(\C)[C@@H](O)[C@@H](OC)C(=O)[C@H](C)C[C@H](C)/C=C/C=C/C=C/1C [Compound 439, (1R,9S,12S,15R,16E,18R,19R,21R,23S,24E,26E,28E,30S,32S,35R)-1,18-dihydroxy-12-[(1R)-2-[(1S,3R,4R)-4-(2-hydroxyethoxy)-3-methoxy-cyclohexyl]-1-methyl-ethyl]-19-methoxy-30-(2-methoxyethoxy)-15,17,21,23,29,35-hexamethyl-11,36-dioxa-4-azatricyclo[30.3.1.0^4,9]hexatriaconta-16,24,26,28-tetraene-2,3,10,14,20-pentone] | 0.3 to 1 | < 500 | < 0.8
